According to BindingDB's records for doi:10.1124/jpet.104.065391 (University of Arizona, 2004):
Where a SMILES comes first, the peptide text is derived from it. [ ]: non-standard residue; d: D form. dNle = CCCC[C@@H](N)C(=O)O

Assays:
[1] = biological target: Kappa-type opioid receptor (Homo sapiens, UniProt P41145)
Mu-type opioid receptor = Mu-type opioid receptor (Homo sapiens, UniProt P35372)
Mu-type opioid receptor, sequence (P35372 whole entry): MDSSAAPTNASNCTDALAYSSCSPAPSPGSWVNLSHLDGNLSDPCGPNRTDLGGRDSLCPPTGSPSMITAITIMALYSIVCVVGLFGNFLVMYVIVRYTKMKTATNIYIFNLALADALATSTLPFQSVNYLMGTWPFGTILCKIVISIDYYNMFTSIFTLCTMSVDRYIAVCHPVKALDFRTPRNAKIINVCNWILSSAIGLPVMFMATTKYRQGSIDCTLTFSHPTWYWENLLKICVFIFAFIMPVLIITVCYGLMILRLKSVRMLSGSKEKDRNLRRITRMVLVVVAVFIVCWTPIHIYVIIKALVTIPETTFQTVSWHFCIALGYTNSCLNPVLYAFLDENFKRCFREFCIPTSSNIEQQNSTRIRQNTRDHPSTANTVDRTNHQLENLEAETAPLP

Kappa-type opioid receptor, sequence (P41145 whole entry): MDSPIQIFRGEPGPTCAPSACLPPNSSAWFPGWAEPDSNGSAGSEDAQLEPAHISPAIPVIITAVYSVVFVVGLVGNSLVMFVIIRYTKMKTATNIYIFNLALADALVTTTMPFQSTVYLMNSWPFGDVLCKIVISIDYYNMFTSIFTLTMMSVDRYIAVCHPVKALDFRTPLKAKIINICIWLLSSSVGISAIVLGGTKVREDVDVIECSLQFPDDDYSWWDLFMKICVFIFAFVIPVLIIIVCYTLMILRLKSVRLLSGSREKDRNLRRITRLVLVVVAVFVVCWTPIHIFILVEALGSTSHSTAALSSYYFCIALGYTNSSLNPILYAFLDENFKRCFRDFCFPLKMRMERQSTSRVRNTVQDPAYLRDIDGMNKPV

## CCCC[C@@H](NC(=O)[C@@H](Cc1ccccc1)NC(=O)[C@H](N)Cc1ccccc1)C(=O)N[C@H](CCCNC(=N)N)C(N)=O [d-Phe-d-Phe-d-Nle-d-Arg-NH2] (H-[dF][dF][dNle][dR]-NH2)
[1]
  Ki: 0.000146 µM
Mu-type opioid receptor
  Ki: 4.57 µM
